Data from patent US11446285B2, “Methods for treating systemic lupus erythematosus” (University of Southern California, priority 2017, dated 2022).
“Also recorded” adds a separate entry of the source.

What was measured:
Format in all cases: in vivo
MRL-lpr mice [1] = assay: Glomerulonephritis scores (H&E kidney sections) in MRL-lpr mouse model of SLE; conditions: once daily s.c. for 6 weeks, A(1-7) 0.5 mg/kg, Compound 7 2 mg/kg, compared to saline treated MRL-lpr mice
Experimental: Glomerulonephritis scores. Twenty glomeruli from kidney sections stained with H&E were scored for each mouse and a mean score was calculated. The glomerulonephritis score was based on a previously published score of 0-4 based on histopathological changes^6. The scores were defined as: 0, kidney without glomerular lesions; 1, minimal thickening of the mesangium; 2, noticeable increase in both mesangial and glomerular capillary cellularity; 3, preceding conditions, along with superimposed inflammatory exudates and capsular adhesions; 4, obliteration of the glomerular architecture included >70% of glomeruli.
(§1) Our study uses the MRL/MpJ-Fas^lpr/J (MRL-lpr) as a mouse model of SLE and MRL/MpJ mice as controls (control mice do develop SLE but at a much later stage in life). These mice were broken into 4 groups that received once daily subcutaneous injections of treatment starting at 8 weeks of age for 6 weeks: a MRL/MpJ group (n=5) dosed daily with saline, an MRL-lpr group (n=8) dosed with saline, an MRL/MpJ group (n=8) dosed with 0.5 mg/kg of A(1-7), and an MRL/MpJ group (n=8) dosed with 2 mg/kg of Compound 7 (in an aqueous Tween 20 formulation). Throughout the study, the mice were monitored for proteinuria and face lesions. At necropsy, the kidneys and peripheral blood were harvested. The kidneys sections were stained with hematoxylin & eosin (H&E) for evaluation of glomerular health. […]

MRL-lpr mice [2] = assay: Face rash scores in MRL-lpr mouse model of SLE; conditions: scored 19, 25, 30, 37 and 40 days after start of treatment, A(1-7) 0.5 mg/kg, Compound 7 2 mg/kg s.c. daily, compared to saline treated MRL-lpr mice
Source text: Face rash scores. Mice were monitored daily for skin lesions. Scores of lesions of the face were taken 19, 25, 30, 37 and 40 days after the start of treatment; pictures were taken at different time points throughout the study. Face rash scores were based on location and extent of inflammation and hair loss as follows: 0, no noticeable irritation; 1, little redness, no hair loss or inflammation; 2, minimal rash, little hair loss or inflammation; 3, moderate rash, increased hair loss, light inflammation; 4, pronounced rash, near total hair loss and obvious inflammation; 5, rash is spreading up to the top of the face; 6, obvious wound above nose.
(§2) Our study uses the MRL/MpJ-Fas^lpr/J (MRL-lpr) as a mouse model of SLE and MRL/MpJ mice as controls (control mice do develop SLE but at a much later stage in life). These mice were broken into 4 groups that received once daily subcutaneous injections of treatment starting at 8 weeks of age for 6 weeks: a MRL/MpJ group (n=5) dosed daily with saline, an MRL-lpr group (n=8) dosed with saline, an MRL/MpJ group (n=8) dosed with 0.5 mg/kg of A(1-7), and an MRL/MpJ group (n=8) dosed with 2 mg/kg of Compound 7 (in an aqueous Tween 20 formulation). Throughout the study, the mice were monitored for proteinuria and face lesions. At necropsy, the kidneys and peripheral blood were harvested. The kidneys sections were stained with hematoxylin & eosin (H&E) for evaluation of glomerular health. Blood samples were processed and the plasma was stored at −20° C. for measurement of anti-dsDNA antibodies.

MRL-lpr mice [3] = assay: Anti-dsDNA IgG titers in plasma (ELISA) in MRL-lpr mouse model of SLE; conditions: plasma at necropsy after 6 weeks of treatment, A(1-7) 0.5 mg/kg, Compound 7 2 mg/kg s.c. daily, compared to saline treated MRL-lpr mice
Experimental: Anti-dsDNA IgG titers. Peripheral blood was collected at necropsy by cardiac puncture with a 1 mL syringe fitted with a 22G needle, transferred into 2 ml K3E K3EDTA VACUETTE® tubes, and stored on ice. The tubes were then spun at 1,500 RPM for 15 min at 4° C. The plasma (top layer) was collected and stored at −20° C. The plasma was then diluted at 1:100 and used in a Mouse Anti-DNA IgG Antibody ELISA Kits (Chondrex Inc, Redmond, Wash.). The average concentration of duplicate samples was calculated against a standard curve and averaged for each mouse.
as §1

MRL-lpr mice [4] = assay: Lymph node weights (inguinal and axillary) in MRL-lpr mouse model of SLE; conditions: 6 weeks of treatment, A(1-7) 0.5 mg/kg, Compound 7 2 mg/kg s.c. daily, compared to saline treated MRL-lpr mice
Source text: Lymph node weights. At necropsy, inguinal and axillary lymph nodes were dissected and trimmed of any surrounding fatty tissues. They were then weighed using an Adventurer precision balance (Ohaus Corporation, Parsippany, N.J.).
as §2

MRL-lpr mice [5] = assay: Protein urine scores in MRL-lpr mouse model of SLE; conditions: once daily s.c. for 6 weeks from 8 weeks of age, A(1-7) 0.5 mg/kg, Compound 7 2 mg/kg, compared to saline treated MRL-lpr mice
Experimental: Protein urine scores. At necropsy a final measurement or proteinuria was done using Urinalysis Reagent Strips (Mountainside Medical Equipment; Marcy, N.Y.). Protein scores signify the level of protein measured in the urine of each mouse and are scored as; 1-15 mg/dl protein, 2-30 mg/dl protein, 3-100 mg/dl protein and 4-300 mg/dl protein.
as §2

Compound	glomerulonephritis score (glomerular pathologies) (MRL-lpr mice [1])	face rash score (inflammation and hair loss) (MRL-lpr mice [2])	face rash score (inflammation and hair loss) (MRL-lpr mice [2]; listed as compound 7)	concentration of circulating anti-dsDNA IgG antibodies in plasma (MRL-lpr mice [3])	inguinal and axillary lymph node weight (size) at necropsy (MRL-lpr mice [4])	protein urine score (proteinuria) at final measurement (MRL-lpr mice [5])
CCCCOC(=O)NS(=O)(=O)c1ccc(OC(F)(F)F)cc1-c1ccc(Cn2ccnc2)cn1 [Compound 7]	significantly reduced the glomerular pathologies	significantly lower only at day 19 and 37	significantly less overall pathologies	significantly lower levels of circulating IgG antibodies against dsDNA; also recorded: significantly lower concentrations	reduced the size of both lymph nodes; also recorded: reduced the size but not significantly	significantly lower protein scores
Asp-Arg-Val-Tyr-Ile-His-Pro (DRVYIHP) [A(1-7), endogenous Mas receptor ligand angiotensin 1-7]	significantly reduced the glomerular pathologies	significantly less overall pathologies; also recorded: significantly lower score than the saline treated MRL-lrp mice throughout the study	–	significantly lower levels of circulating IgG antibodies against dsDNA; also recorded: significantly lower concentrations	reduced the size of both lymph nodes; also recorded: significantly smaller	significantly lower protein scores
